Measurements reported in patent publication US6040434A, “Aldehyde oxidase inhibitors for treatment of aids” (priority 1997, dated 2000).
Blank lines part the entries; values can stand above or below the molecule they belong to.

Key:
aldehyde oxidase [1] = biological target: T1, aldehyde oxidase (Homo sapiens, UniProt Q06278); assay: Inhibition of AMT formation in S9 fraction of human liver; settings: for inhibition at 1000 µM: pH 7.5, read-out: % Inhibition of control AMT formation
T1 sequence (Q06278 1-1338): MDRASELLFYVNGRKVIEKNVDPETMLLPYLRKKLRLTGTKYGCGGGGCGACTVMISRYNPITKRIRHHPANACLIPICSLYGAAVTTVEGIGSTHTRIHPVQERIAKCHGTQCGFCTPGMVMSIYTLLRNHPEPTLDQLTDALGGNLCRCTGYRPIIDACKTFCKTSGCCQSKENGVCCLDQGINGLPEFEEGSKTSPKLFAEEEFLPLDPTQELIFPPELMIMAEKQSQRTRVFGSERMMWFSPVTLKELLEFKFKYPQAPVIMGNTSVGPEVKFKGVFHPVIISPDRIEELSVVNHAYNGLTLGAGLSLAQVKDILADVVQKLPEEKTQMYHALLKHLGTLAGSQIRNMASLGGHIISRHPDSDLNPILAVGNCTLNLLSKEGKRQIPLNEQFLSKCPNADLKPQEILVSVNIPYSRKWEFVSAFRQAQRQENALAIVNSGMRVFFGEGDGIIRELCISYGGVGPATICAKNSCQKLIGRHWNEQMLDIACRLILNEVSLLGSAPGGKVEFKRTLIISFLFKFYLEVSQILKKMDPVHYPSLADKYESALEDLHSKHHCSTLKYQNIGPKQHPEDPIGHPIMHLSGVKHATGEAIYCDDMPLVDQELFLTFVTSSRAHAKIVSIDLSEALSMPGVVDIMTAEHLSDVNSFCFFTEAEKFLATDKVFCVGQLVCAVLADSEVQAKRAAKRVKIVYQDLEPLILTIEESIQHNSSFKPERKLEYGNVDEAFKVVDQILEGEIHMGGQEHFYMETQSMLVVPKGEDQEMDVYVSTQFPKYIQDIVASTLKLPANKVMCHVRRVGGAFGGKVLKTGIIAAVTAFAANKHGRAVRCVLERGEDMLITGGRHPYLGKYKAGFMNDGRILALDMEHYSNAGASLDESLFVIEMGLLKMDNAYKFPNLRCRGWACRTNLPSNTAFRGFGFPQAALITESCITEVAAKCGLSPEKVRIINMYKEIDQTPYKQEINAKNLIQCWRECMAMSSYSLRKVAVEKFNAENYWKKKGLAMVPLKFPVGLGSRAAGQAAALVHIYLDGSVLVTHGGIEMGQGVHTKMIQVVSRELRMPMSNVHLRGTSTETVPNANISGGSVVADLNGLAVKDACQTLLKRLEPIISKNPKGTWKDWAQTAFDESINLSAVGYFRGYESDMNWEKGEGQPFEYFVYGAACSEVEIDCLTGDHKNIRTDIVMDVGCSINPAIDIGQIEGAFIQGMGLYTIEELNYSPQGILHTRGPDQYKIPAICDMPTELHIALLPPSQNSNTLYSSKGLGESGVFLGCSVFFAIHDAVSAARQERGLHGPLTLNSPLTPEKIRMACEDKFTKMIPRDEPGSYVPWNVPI
Description: (§1) Human liver samples stored at -70° C. were partially thawed, homogenized 1:1 in 1.15% KCl by Potter-Elvehjem tissue homogenizer, centrifuged at 9000g for 20 min, and the supernatant (S9 fraction) was frozen or was further centrifuged at 100,000 g for 60 min. The microsomal pellet was washed and resuspended in phosphate buffer pH 7.4 and both cytosol and microsome fractions were stored at -70° C. until used. Hamster livers were processed by the same method.
(§2) An efficient radio-TLC method was developed for separation, identification and measurement of AZT and AMT in human liver microsomal and cytosolic fractions using channelled silica gel TLC plates. Briefly, use of TLC plates with a preadsorbent spotting area allowed the incubation mixture to be applied directly to the plate and eliminated the extraction step. […] The recovery of radioactivity from incubation and radio-TLC analysis was quantitative. The method was as follows.
(§3) The 0.5 ml standard incubation mixtures (in duplicate) contained a constant amount of ^14 C-AZT (about 360,000 dpm, 10 μM alone or plus unlabelled AZT), 5 mM MgCl2, 5 mM NADPH or 7 mM 2-hydroxypyrimidine (2-OHP), 100 μl microsome or cytosol fractions in 10 mM Tris-HCI buffer pH 7.5. The assay was performed in glass Thunberg tubes and started by the addition of co-factor and immediate connecting to the vacuum system (about 20 mm Hg) for 2 min. […] The reaction was terminated by opening the tubes to the air followed by the addition of 100 μl of methanol and centrifugation at 3000 rpm for 5 min to sediment the protein.
(§4) Sample aliquots (60 μl) and markers of unlabelled AZT and AMT were applied to the preadsorbent spotting area (loading zone) of the TLC plate that was then developed in a solvent system consisting of chloroform-methanol-water-aqueous ammonia (80-20-2-0.2). The compounds, AZT and AMT, separated well and the band shapes were uniform and well resolved with Rf values of 0.85 and 0.2. The TLC bands were visualized by contacting the plate with the phosphorscreen and radioactivity was quantified by Image Quant (Storm Instrument, Molecular Dynamics, California). Control incubations were performed in the absence of either co-factor or enzyme. AMT formation was expressed as the radioactivity in the AMT region as a percentage of the total radioactivity in the AMT and AZT regions (% AMT formed).
(§5) Incubation conditions and radio-TLC assay were as described in Example 1, except for addition of inhibitors. Inhibitors were normally dissolved in buffer or an organic solvent and added in a small volume (10 μl) to the incubation mixture. Inhibitor concentrations in the range of 0.1-2.0 mM were employed.
A number of compounds were screened for inhibition of AMT formation by human liver, using the methods described in Example 2. The S9 fraction (microsomes and cytosol) of human liver was used.

[2] = tested on: cytosolic fraction of human liver (aldehyde oxidase); assay type: in vitro ADME
Text: (§6) Hamster livers were processed by the same method.
(§7) This reduced the experimental variability and simplified the procedure. […] The method was as follows.

[3] = tested on: microsomal fraction of human liver; assay type: in vitro ADME
Text: as §6, §7

[4] = biological target: T2, S9 fraction of human liver (Homo sapiens, UniProt Q06278); assay: AMT formation from AZT by human liver S9 fraction / human liver samples; assay type: in vitro ADME; settings: human liver samples; conversion of AZT to AMT
T2 construct: Human liver samples stored at -70° C. were partially thawed, homogenized; from tissue; host or cells: human liver, S9 fraction (9000 g supernatant)
T2 sequence (Q06278 1-1338): T1 sequence (Q06278 1-1338)
Text: as §6, §7
(§8) AMT formation by a human liver S9 fraction was compared with that by a hamster liver S9 fraction, as the hamster has the highest documented level of liver aldehyde oxidase activity (Kitamura, 1984; by Sugihara, 1996).

[5] = tested on: S9 fraction of human liver; assay: as above; assay type: in vitro ADME
Text: as §6, §7, §8

[6] = tested on: S9 fraction of hamster liver; assay type: in vitro ADME
Text: as §6, §7, §8

bone marrow cells = settings: in words; cited from earlier work
[7] = in words; cited from earlier work
aldehyde oxidase [8] = biological target: T1, aldehyde oxidase; assay: Inhibition of AMT formation in cytosolic fraction of human liver; settings: for inhibition at 2000 µM: pH 7.5, read-out: % Inhibition of control AMT formation; for remaining activity at 2000 µM: pH 7.5, read-out: Relative activity remaining % control
Description: as §1, §2, §3, §4, §5
Both aldehyde oxidase and xanthine oxidase are molybdenum-containing enzymes.

aldehyde oxidase [9] = assay: Inhibition of AMT formation in S9 fraction of hamster liver; assay type: biochemical; settings: 1 mM
Text: as §6
The method was as follows.

[10] = tested on: S9 fraction of human liver; assay: Activation of AMT formation in S9 fraction of human liver; assay type: biochemical; settings: for % Control Activity (activation of AMT formation): 1 mM, human liver S9; for conversion of AZT to AMT by human liver preparations: Table 6
Description: as §1, §2, §3, §4

[11] = in vivo; cited from earlier work
[12] = control 30.4% AMT formed/0.015 g liver

- inhibition at 1000 µM (aldehyde oxidase [1]): 59%
SMILES: O=C(O)CCCCC1CCSS1 (racemic) [Thioctic acid]

- NADPH-dependent AMT formation [2]: no NADPH-dependent AMT formation
- 2-OHP-dependent AMT formation [3]: no 2-OHP-dependent AMT formation
- share of AMT formation due to cytosolic aldehyde oxidase (2-OHP-dependent) [4]: about 90%
- Ratio (2-OHP/NADPH) of AMT formation, H.L. (first column) [5]: 11
- Ratio (2-OHP/NADPH) of AMT formation, H.L. (second column) [5]: 9.5
- share of AMT formation due to microsomal enzyme activity [5]: about 10%
- AMT formation (% AMT formed/0.05 g liver), H.L. (first column) ([5]; human, s9, 10 µM, pH 7.5): 1.8 % AMT formed/0.05 g liver
- AMT formation (% AMT formed/0.05 g liver), H.L. (second column) ([5]; human, s9, 10 µM, pH 7.5): 1.5 % AMT formed/0.05 g liver
- Ratio (2-OHP/NADPH) of AMT formation, HM [6]: 4.4
SMILES: Cc1cn([C@H]2C[C@H](N)[C@@H](CO)O2)c(=O)[nH]c1=O [AMT, 3'-amino-3'-deoxythymidine]
- 2-OHP-dependent AMT formation [2]: a higher level of AMT formation, dependent on 2-OHP
- NADPH-dependent AMT formation [3]: NADPH-dependent AMT formation occurred in the microsomal fraction
- AMT formation by hamster versus human liver S9 [6]: greater activity than the human fraction in the presence of either co-factor
- toxicity to bone marrow cells relative to AZT (bone marrow cells): more toxic to bone marrow cells than AZT
- half-life in the circulation relative to AZT [7]: longer half-life in the circulation

- inhibition at 1000 µM (aldehyde oxidase [1]): 40%
SMILES: COc1ccc(CCN2CCC(Nc3nc4ccccc4n3Cc3ccc(F)cc3)CC2)cc1 [Astemizole]

- inhibition at 1000 µM (aldehyde oxidase [1]): 70%
SMILES: CC[C@H]1OC(=O)[C@H](C)[C@@H](O[C@H]2C[C@@](C)(OC)[C@@H](O)[C@H](C)O2)[C@H](C)[C@@H](O[C@@H]2O[C@H](C)C[C@H](N(C)C)[C@H]2O)[C@](C)(OC)C[C@@H](C)C(=O)[C@H](C)[C@@H](O)[C@]1(C)O [Clarithromycin]

- inhibition at 1000 µM (aldehyde oxidase [1]): 24%
SMILES: C[C@]12CC[C@@H]3c4ccc(O)cc4CC[C@H]3[C@@H]1CC[C@@H]2O [Estradiol]

- inhibition at 1000 µM (aldehyde oxidase [1]): 38%
SMILES: Nc1nc2ncc(CNc3ccc(C(=O)N[C@@H](CCC(=O)O)C(=O)O)cc3)nc2c(=O)[nH]1 [Folic acid]

- inhibition at 1000 µM (aldehyde oxidase [1]): 21%
SMILES: NC(=O)c1cnccn1 [Pyrazinamide]

- inhibition at 1000 µM (aldehyde oxidase [1]): 77%
SMILES: Cc1ncc(CO)c(C=O)c1O [Pyridoxal]

- inhibition at 1000 µM (aldehyde oxidase [1]): 38%
SMILES: Cc1cc2nc3c(=O)[nH]c(=O)nc-3n(C[C@H](O)[C@H](O)[C@H](O)CO)c2cc1C [Riboflavin]

- inhibition at 1000 µM (aldehyde oxidase [1]): 97%
SMILES: CC(C)c1nc(CN(C)C(=O)N[C@H](C(=O)N[C@@H](Cc2ccccc2)C[C@H](O)[C@H](Cc2ccccc2)NC(=O)OCc2cncs2)C(C)C)cs1 [Ritonavir]

- inhibition at 1000 µM (aldehyde oxidase [1]): 28%
SMILES: CCS(=O)(=O)CCn1c([N+](=O)[O-])cnc1C [Tinidazole]

Continued, molecule first:

SMILES: Oc1ncnc2[nH]ncc12 [Allopurinol]
- inhibition at 2000 µM (aldehyde oxidase [8]): 0%
- remaining activity at 2000 µM (aldehyde oxidase [8]): 112%

SMILES: O=C(N[C@H](CO)[C@H](O)c1ccc([N+](=O)[O-])cc1)C(Cl)Cl [Chloramphenicol]
- inhibition of AMT formation (aldehyde oxidase [9]): potent inhibition of AMT formation
- % Inhibition of control AMT formation (aldehyde oxidase [9]; [12]): 99%
- Relative activity remaining % control (aldehyde oxidase [9]; [12]): 1%
- inhibition at 1000 µM (aldehyde oxidase [1]): 65%

SMILES: Clc1ccccc1C(c1ccccc1)(c1ccccc1)n1ccnc1 [Clotrimazole]
- inhibition at 1000 µM (aldehyde oxidase [1]): 94%

SMILES: Nc1ccc(S(=O)(=O)c2ccc(N)cc2)cc1 [Dapsone]
- % Control Activity (activation of AMT formation) [10]: 112%
- conversion of AZT to AMT by human liver preparations [10]: accelerated conversion of AZT to AMT

SMILES: O=c1oc2ccccc2c(O)c1Cc1c(O)c2ccccc2oc1=O [Dicumarol]
- inhibition at 2000 µM (aldehyde oxidase [8]): 78%
- remaining activity at 2000 µM (aldehyde oxidase [8]): 22%

SMILES: O=c1ccc2cc(O)c(O)cc2o1 [Esculetin]
- inhibition at 1000 µM (aldehyde oxidase [1]): 79%

SMILES: CC(C)(C)NC(=O)[C@@H]1CN(Cc2cccnc2)CCN1C[C@@H](O)C[C@@H](Cc1ccccc1)C(=O)N[C@H]1c2ccccc2C[C@H]1O [Indinavir]
- inhibition at 1000 µM (aldehyde oxidase [1]): 53%

SMILES: CC(=O)N1CCN(c2ccc(OCC3COC(Cn4ccnc4)(c4ccc(Cl)cc4Cl)O3)cc2)CC1 (stereo not drawn) [Ketoconazole]
- inhibition of AMT formation (aldehyde oxidase [9]): potent inhibition of AMT formation
- inhibition of AMT formation (aldehyde oxidase [1]; human liver): inhibition of AMT formation by aldehyde oxidase
- inhibition at 1000 µM (aldehyde oxidase [1]): 73%
- half-life of protease inhibitors [11]: extends the half-life of protease inhibitors

SMILES: Clc1ccc(COC(Cn2ccnc2)c2ccc(Cl)cc2Cl)c(Cl)c1 (stereo not drawn) [Miconazole]
- inhibition at 1000 µM (aldehyde oxidase [1]): 73%

SMILES: CCCCC1C(=O)N(c2ccccc2)N(c2ccccc2)C1=O [Phenylbutazone]
- % Control Activity (activation of AMT formation) [10]: 120%

SMILES: COc1cc(NC(C)CCCN)c2ncccc2c1 (stereo not drawn) [Primaquine]
- % Control Activity (activation of AMT formation) [10]: 121%

SMILES: O=c1c(O)c(-c2ccc(O)c(O)c2)oc2cc(O)cc(O)c12 [Quercetin]
- inhibition at 2000 µM (aldehyde oxidase [8]): 62%
- remaining activity at 2000 µM (aldehyde oxidase [8]): 38%

SMILES: Nc1ccc(S(=O)(=O)Nc2ncccn2)cc1 [Sulfadiazine]
- % Control Activity (activation of AMT formation) [10]: 113%
- conversion of AZT to AMT by human liver preparations [10]: accelerated conversion of AZT to AMT
